# Publication PMC10339456, “Exploring the 5-Substituted 2-Aminobenzothiazole-Based DNA Gyrase B Inhibitors Active against ESKAPE Pathogens” (ACS Omega, 2023)
# Like-named read-outs stand apart in the source and are kept apart here.
# How the values were obtained:
# E. coli ATCC25922 [1] = experiment: MIC, broth microdilution (CLSI); assay type: cell-based; details: Escherichia coli
# Procedure: (§1) Antimicrobial assays (MICs) were performed by a standard serial broth microdilution method. For details on antimicrobial assays, see the Supporting Information.
# S. aureus ATCC29213 [2] = experiment: MIC, broth microdilution (CLSI); assay type: cell-based; details: Staphylococcus aureus
# Procedure: as §1
# P. aeruginosa ATCC27853 [3] = experiment: MIC, broth microdilution (CLSI); assay type: cell-based; details: Pseudomonas aeruginosa
# Procedure: as §1
# [4] = test system: Enterobacter cloacae ATCC13047; experiment: MIC, broth microdilution (CLSI); assay type: cell-based
# Procedure: as §1
# A. baumannii ATCC17978 [5] = experiment: MIC, broth microdilution (CLSI); assay type: cell-based; details: Acinetobacter baumannii
# Procedure: as §1
# K. pneumoniae ATCC10031 [6] = experiment: MIC, broth microdilution (CLSI); assay type: cell-based; details: Klebsiella pneumoniae
# Procedure: as §1
# [7] = test system: S. aureus (MRSA) ATCC43300; experiment: MIC, broth microdilution (CLSI); assay type: cell-based; details: Staphylococcus aureus
# Procedure: as §1
# E. coli gyrase [8] = target: T1, E. coli gyrase (Escherichia coli, UniProt P0AES6); experiment: DNA gyrase supercoiling assay (Inspiralis kit); assay type: biochemical; details: mean ± SD of three independent experiments
# T1 construct: purchased Inspiralis Limited, Norwich, UK
# Procedure: (§2) Compounds B, C, D, and E were evaluated against DNA gyrase from E. coli supercoiling and against Topo IV in relaxation assay. The results are presented in Table 1 and Figure S5 as concentrations of compounds that inhibit the enzyme activity by 50% (IC50 values). […] Compounds B, C, D, and E were tested for antibacterial activity against Gram-positive and Gram-negative bacteria, including ESKAPE pathogens.
# (§3) Commercially available assay kits (Inspiralis Limited, Norwich, UK) were used for the determination of IC50 values for test compounds for inhibition of DNA gyrase supercoiling and Topo IV and TopoIIα relaxation. Assays were performed according to previously reported procedures.[25] For details on enzyme assays, see the Supporting Information.
# E. coli Topo IV [9] = target: T2, E. coli Topo IV (Escherichia coli, UniProt P20083); experiment: Topo IV relaxation assay (Inspiralis kit); assay type: biochemical
# T2 construct: purchased Inspiralis Limited, Norwich, UK
# Procedure: as §2, §3
# Gram-negative strains [10] = experiment: MIC, summary in text over Gram-negative strains; assay type: cell-based; details: for MIC: read-out: MIC against Gram-negative strains (no activity); for MIC range against Gram-negative strains: E. coli, A. baumannii, P. aeruginosa, and K. pneumoniae
# Procedure: (§4) To evaluate selectivity against a related human target, compounds D and E were tested for their inhibitory activity on human topoisomerase IIα.
# as §1
# human topoisomerase IIα = target: T3, human topoisomerase IIα (Homo sapiens, UniProt P11388); experiment: Human topoisomerase IIα relaxation assay (selectivity); assay type: biochemical; details: read-out: enzyme residual activity human topoisomerase IIα
# T3 construct: purchased Inspiralis Limited, Norwich, UK
# Procedure: as §4, §3
# [11] = test system: Gram-positives S. aureus, MRSA, VISA, and E. faecium; experiment: MIC, summary over Gram-positive strains; assay type: cell-based; details: most strains
# Procedure: as §4, §1
# E. faecium ATCC700221 = experiment: MIC, broth microdilution (CLSI); assay type: cell-based; details: Enterococcus faecium
# Procedure: as §1
# [12] = test system: S. aureus (VISA) ATCC700699; experiment: MIC, broth microdilution (CLSI); assay type: cell-based; details: Staphylococcus aureus
# Procedure: as §1
# [13] = test system: S. aureus (MRSA) ATCC43300; parameters: method as in PMID 33524686; details: cited from earlier work
# S. aureus ATCC29213 [14] = test system: S. aureus ATCC29213; parameters: method as in PMID 33524686; details: cited from earlier work
# E. coli gyrase [15] = target: T1, E. coli gyrase; parameters: method as in PMID 33524686; details: supercoiling; compound previously prepared and tested; cited from earlier work
# E. coli Topo IV [16] = target: T2, E. coli Topo IV; parameters: method as in PMID 33524686; details: relaxation; compound previously prepared and tested; cited from earlier work
# P. aeruginosa ATCC27853 [17] = test system: P. aeruginosa ATCC27853; parameters: method as in PMID 33524686; details: cited from earlier work
# A. baumannii ATCC17978 [18] = test system: A. baumannii ATCC17978; parameters: method as in PMID 33524686; details: cited from earlier work
# E. coli ATCC25922 [19] = test system: E. coli ATCC25922; parameters: method as in PMID 33524686; details: cited from earlier work
# Gram-negative strains [20] = test system: Gram-negative strains; parameters: method as in PMID 33524686; details: cited from earlier work
# K. pneumoniae ATCC10031 [21] = test system: K. pneumoniae ATCC10031; parameters: method as in PMID 33524686; details: cited from earlier work
# [22] = mean ± SD of three independent experiments, read-out: IC50 E. coli Topo IV
# T2 sequence (P20083 whole entry): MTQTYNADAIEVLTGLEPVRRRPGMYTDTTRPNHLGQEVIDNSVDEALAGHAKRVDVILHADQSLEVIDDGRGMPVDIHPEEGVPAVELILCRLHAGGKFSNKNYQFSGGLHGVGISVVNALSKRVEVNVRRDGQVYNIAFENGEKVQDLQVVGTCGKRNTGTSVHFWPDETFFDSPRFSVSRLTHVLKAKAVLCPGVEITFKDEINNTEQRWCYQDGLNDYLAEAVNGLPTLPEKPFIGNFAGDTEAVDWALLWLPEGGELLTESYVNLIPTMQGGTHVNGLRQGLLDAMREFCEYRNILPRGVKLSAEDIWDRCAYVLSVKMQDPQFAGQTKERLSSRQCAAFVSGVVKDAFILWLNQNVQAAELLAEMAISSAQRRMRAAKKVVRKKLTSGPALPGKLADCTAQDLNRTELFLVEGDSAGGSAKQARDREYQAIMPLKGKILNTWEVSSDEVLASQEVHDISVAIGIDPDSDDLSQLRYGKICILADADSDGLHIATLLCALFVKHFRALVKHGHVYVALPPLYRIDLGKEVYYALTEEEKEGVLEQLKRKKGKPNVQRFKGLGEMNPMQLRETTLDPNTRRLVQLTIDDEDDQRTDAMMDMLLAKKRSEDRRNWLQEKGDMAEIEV
# T2 sequence (P0AFI2 whole entry, further chain): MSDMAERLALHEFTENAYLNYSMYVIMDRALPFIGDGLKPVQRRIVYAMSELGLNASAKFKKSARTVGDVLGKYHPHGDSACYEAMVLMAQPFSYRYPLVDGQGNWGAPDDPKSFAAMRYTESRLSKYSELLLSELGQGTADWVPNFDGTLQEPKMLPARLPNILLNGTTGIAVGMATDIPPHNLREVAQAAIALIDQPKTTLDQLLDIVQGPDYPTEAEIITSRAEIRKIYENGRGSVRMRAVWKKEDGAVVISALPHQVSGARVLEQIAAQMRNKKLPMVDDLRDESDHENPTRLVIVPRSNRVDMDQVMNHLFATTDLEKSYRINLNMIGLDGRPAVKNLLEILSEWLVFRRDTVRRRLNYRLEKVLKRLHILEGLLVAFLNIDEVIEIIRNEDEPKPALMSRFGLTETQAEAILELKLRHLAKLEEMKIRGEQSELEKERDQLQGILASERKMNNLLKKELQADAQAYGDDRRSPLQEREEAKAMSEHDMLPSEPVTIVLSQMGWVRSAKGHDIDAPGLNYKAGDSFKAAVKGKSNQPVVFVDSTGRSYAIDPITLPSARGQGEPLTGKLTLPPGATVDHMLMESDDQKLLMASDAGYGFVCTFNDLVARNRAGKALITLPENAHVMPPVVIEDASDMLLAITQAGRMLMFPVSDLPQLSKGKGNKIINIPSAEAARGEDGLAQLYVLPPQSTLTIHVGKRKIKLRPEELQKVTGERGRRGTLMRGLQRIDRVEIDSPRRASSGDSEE
# T3 sequence (P11388 whole entry): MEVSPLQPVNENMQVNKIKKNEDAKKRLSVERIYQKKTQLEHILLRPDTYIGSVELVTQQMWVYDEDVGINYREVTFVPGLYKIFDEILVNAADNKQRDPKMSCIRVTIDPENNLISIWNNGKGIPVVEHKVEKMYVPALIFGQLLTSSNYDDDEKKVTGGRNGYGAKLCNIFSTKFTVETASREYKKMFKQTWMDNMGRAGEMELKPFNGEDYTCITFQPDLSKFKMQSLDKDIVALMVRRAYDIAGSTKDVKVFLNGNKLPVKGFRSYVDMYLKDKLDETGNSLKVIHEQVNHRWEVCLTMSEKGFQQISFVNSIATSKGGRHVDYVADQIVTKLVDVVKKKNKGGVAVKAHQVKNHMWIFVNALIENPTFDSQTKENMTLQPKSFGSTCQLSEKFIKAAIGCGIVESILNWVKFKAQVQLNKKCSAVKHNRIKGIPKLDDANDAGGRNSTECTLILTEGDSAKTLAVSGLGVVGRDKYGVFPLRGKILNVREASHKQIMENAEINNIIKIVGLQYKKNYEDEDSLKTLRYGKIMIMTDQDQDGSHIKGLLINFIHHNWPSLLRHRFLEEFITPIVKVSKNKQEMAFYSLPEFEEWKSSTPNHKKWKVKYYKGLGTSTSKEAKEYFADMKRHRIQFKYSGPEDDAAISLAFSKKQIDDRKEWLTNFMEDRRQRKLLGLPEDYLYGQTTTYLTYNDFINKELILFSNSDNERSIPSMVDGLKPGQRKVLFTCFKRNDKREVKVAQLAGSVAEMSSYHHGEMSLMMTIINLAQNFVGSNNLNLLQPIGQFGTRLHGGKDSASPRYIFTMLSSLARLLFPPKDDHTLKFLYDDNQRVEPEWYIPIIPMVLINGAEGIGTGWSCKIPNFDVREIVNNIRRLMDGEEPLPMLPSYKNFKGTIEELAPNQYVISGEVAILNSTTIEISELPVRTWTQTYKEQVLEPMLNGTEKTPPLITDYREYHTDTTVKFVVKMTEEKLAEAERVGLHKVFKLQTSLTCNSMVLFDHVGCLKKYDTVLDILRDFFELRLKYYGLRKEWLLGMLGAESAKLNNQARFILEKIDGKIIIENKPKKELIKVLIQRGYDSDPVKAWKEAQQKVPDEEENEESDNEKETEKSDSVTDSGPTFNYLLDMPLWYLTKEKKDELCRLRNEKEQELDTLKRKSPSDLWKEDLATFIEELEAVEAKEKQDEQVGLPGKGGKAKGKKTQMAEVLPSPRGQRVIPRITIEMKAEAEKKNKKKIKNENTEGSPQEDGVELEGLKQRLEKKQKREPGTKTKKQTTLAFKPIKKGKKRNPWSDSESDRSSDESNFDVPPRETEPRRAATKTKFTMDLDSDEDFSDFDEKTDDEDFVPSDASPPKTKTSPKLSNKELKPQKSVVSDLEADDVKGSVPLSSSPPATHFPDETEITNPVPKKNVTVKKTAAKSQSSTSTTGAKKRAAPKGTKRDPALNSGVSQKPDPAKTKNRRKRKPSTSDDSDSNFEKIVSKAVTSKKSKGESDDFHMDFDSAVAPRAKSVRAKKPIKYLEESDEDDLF
SMILES,MIC (E. coli ATCC25922 [1]; first value of cell),MIC (E. coli ATCC25922 [1]; second value of cell),MIC (S. aureus ATCC29213 [2]; first value of cell),MIC (S. aureus ATCC29213 [2]; second value of cell),MIC (P. aeruginosa ATCC27853 [3]; first value of cell),MIC (P. aeruginosa ATCC27853 [3]; second value of cell),MIC ([4]; first value of cell),MIC ([4]; second value of cell),MIC (A. baumannii ATCC17978 [5]; first value of cell),MIC (A. baumannii ATCC17978 [5]; second value of cell),MIC (K. pneumoniae ATCC10031 [6]; first value of cell),MIC (K. pneumoniae ATCC10031 [6]; second value of cell),MIC ([7]; first value of cell),MIC ([7]; second value of cell),IC50 (E. coli gyrase [8]),IC50 (E. coli Topo IV [9]; [22]),MIC (Gram-negative strains [10]),remaining activity at 100 µM (human topoisomerase IIα),MIC [11],MIC (E. faecium ATCC700221; first value of cell),other results
Cc1[nH]c(C(=O)Nc2nc3c(C)c(F)c(C(=O)O)cc3s2)c(Cl)c1Cl [Compound B],> 64 µg/mL,> 159 µM,0.5 µg/mL,1.2 µM,> 64 µg/mL,> 159 µM,> 64 µg/mL,> 159 µM,> 64 µg/mL,> 159 µM,> 64 µg/mL,> 159 µM,0.25 µg/mL,0.6 µM,40 nM,2000 ± 900 nM,> 64 µg/mL,,,,
COCCCNc1cc2nc(NC(=O)c3[nH]c(C)c(Cl)c3Cl)sc2cc1C(=O)O [Compound E],8 µg/mL,18 µM,< 0.03 µg/mL,< 0.07 µM,16 µg/mL,35 µM,> 64 µg/mL,> 140 µM,4 µg/mL,9 µM,4 µg/mL,9 µM,< 0.03 µg/mL,< 0.07 µM,< 10 nM,210 nM,,55%,< 0.03 µg/mL,< 0.06 µg/mL,MIC (E. faecium ATCC700221; second value of cell): < 0.14 µM; MIC ([12]; first value of cell): < 0.03 µg/mL; MIC ([12]; second value of cell): < 0.07 µM; MIC range against Gram-negative strains (Gram-negative strains [10]): 4 to 16 µg/mL
Cc1[nH]c(C(=O)Nc2nc3cc(NCc4ccccc4)c(C(=O)O)cc3s2)c(Cl)c1Cl [Compound D],16 µg/mL,34 µM,< 0.03 µg/mL,< 0.07 µM,8 µg/mL,17 µM,> 64 µg/mL,> 135 µM,8 µg/mL,17 µM,4 µg/mL,8.4 µM,< 0.03 µg/mL,< 0.07 µM,< 10 nM,293 ± 155 nM,,100%,< 0.03 µg/mL,< 0.13 µg/mL,MIC (E. faecium ATCC700221; second value of cell): < 0.26 µM; MIC ([12]; first value of cell): < 0.03 µg/mL; MIC ([12]; second value of cell): < 0.07 µM; MIC range against Gram-negative strains (Gram-negative strains [10]): 4 to 16 µg/mL
Cc1[nH]c(C(=O)Nc2nc3cc(O)c(C(=O)O)cc3s2)c(Cl)c1Cl [Compound A],,,,,,,,,,,,,,,,,,,,,MIC S. aureus (MRSA) ATCC43300 ([13]; first value of cell): 4 µg/mL; MIC S. aureus (MRSA) ATCC43300 ([13]; second value of cell): 10 µM; MIC S. aureus ATCC29213 (S. aureus ATCC29213 [14]; first value of cell): 16 µg/mL; MIC S. aureus ATCC29213 (S. aureus ATCC29213 [14]; second value of cell): 41 µM; IC50 (E. coli gyrase [15]): < 10 nM; IC50 (E. coli Topo IV [16]): 95 nM; MIC P. aeruginosa ATCC27853 (P. aeruginosa ATCC27853 [17]; first value of cell): > 64 µg/mL; MIC P. aeruginosa ATCC27853 (P. aeruginosa ATCC27853 [17]; second value of cell): > 166 µM; MIC A. baumannii ATCC17978 (A. baumannii ATCC17978 [18]; first value of cell): > 64 µg/mL; MIC A. baumannii ATCC17978 (A. baumannii ATCC17978 [18]; second value of cell): > 166 µM; MIC E. coli ATCC25922 (E. coli ATCC25922 [19]; first value of cell): > 64 µg/mL; MIC E. coli ATCC25922 (E. coli ATCC25922 [19]; second value of cell): > 166 µM; MIC against Gram-negative bacterial strains (inactive) (Gram-negative strains [20]): > 64 µg/mL; MIC K. pneumoniae ATCC10031 (K. pneumoniae ATCC10031 [21]; first value of cell): 8 µg/mL; MIC K. pneumoniae ATCC10031 (K. pneumoniae ATCC10031 [21]; second value of cell): 21 µM
CC(=O)N(Cc1ccccc1)c1cc2nc(NC(=O)c3[nH]c(C)c(Cl)c3Cl)sc2cc1C(=O)O [Compound C],> 64 µg/mL,> 124 µM,8 µg/mL,16 µM,> 64 µg/mL,> 124 µM,> 64 µg/mL,> 124 µM,> 64 µg/mL,> 124 µM,64 µg/mL,124 µM,8 µg/mL,16 µM,71 nM,,> 64 µg/mL,,,,"IC50 (E. coli Topo IV [9]; E. coli, read-out: IC50 Topo IV): 4000 nM"
